These results are taken from patent publication US8716493B2, “Multicyclic compounds and the use thereof” (Cephalon, Inc., priority 2000, dated 2014).

SMILES strings stand for the structures.

By IC50 is commonly meant the concentration that inhibits the measured activity by half.

For one test, the target named is recombinant human PARP (Homo sapiens, UniProt P09874). Briefly: Measurement of PARP enzymatic activity (transfer of radiolabeled ADP-ribose from NAD+ to protein acceptor). Type of test: biochemical. The following applies: PARP IC50 (nM), Table 2. As to the method: PARP activity was monitored by transfer of radiolabeled ADP-ribose units from [^32]NAD^+ to a protein acceptor such as histone or PARP itself. […] The reactions were initiated by the addition of 100 μM NAD^+ supplemented with 2 uCi [^32]NAD^+/mL and maintained at room temperature for 12 minutes. […] The amount of acid-insoluble radioactivity, corresponding to polyADP-ribosylated protein, was quantitated in a Wallac MicroBeta scintillation counter.
recombinant human PARP, sequence (P09874 whole entry): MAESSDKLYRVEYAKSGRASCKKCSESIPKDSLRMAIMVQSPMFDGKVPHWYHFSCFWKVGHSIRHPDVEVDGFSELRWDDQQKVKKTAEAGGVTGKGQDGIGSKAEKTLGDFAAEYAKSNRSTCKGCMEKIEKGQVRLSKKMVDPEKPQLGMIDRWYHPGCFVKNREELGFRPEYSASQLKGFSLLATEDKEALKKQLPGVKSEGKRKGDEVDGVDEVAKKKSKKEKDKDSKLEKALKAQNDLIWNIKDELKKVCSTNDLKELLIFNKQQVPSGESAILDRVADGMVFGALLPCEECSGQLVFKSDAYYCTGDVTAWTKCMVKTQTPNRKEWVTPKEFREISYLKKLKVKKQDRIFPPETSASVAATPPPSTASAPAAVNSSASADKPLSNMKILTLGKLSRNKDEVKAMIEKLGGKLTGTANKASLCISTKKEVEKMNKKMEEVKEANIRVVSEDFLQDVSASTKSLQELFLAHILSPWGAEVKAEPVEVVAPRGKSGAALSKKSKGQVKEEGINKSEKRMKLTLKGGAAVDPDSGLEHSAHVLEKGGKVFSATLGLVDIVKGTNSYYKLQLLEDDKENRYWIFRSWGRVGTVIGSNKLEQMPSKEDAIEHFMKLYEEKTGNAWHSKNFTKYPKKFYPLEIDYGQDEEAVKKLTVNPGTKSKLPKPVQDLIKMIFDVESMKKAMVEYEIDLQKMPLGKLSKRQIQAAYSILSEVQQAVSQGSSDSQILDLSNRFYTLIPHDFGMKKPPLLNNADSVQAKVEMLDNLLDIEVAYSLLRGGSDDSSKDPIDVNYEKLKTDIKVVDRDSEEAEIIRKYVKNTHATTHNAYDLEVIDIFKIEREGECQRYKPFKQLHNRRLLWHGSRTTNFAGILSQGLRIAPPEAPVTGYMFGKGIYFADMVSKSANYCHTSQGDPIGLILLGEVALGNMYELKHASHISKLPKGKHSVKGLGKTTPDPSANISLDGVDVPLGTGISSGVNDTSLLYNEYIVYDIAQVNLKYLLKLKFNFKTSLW
Single-point inhibition data were calculated by comparing PARP, VEGFR2, or MLK3 activity in the presence of inhibitor to activity in the presence of DMSO only. Inhibition curves for compounds were generated by plotting percent inhibition versus log10 of the concentration of compound. IC50 values were calculated by nonlinear regression using the sigmoidal dose-response (variable slope) equation in GraphPad Prism as follows: y=bottom+(top−bottom)/(1+10^(log IC50^−x)*Hillslope) where y is the % activity at a given concentration of compound, x is the logarithm of the concentration of compound, bottom is the % inhibition at the lowest compound concentration tested, and top is the % inhibition at the highest compound concentration examined. The values for bottom and top were fixed at 0 and 100, respectively. IC50 values were reported as the average of at least three separate determinations.
For some compounds, inhibiting data is presented as percent inhibition at a specified concentration. Compounds are tabulated together with compound number, substituents, and enzyme inhibition data.
Regarding `O=C1NC(=O)c2c1c1c(c3[nH]c4ccc(-c5csc(CNC(=O)C6CC6)n5)cc4c23)CCC1` [Compound 3w], the IC50 is 49 nM.

The same test, now with this note: PARP IC50 (nM), Table 8.
In the case of `O=C(NCCCn1ccnc1)Oc1ccc2[nH]c3c4c(c5c(c3c2c1)C(=O)NC5=O)CCC4` [Compound 15d], the IC50 was 32 nM.
Still for that read-out and setting: to `O=C(NCCCN1CCCC1=O)Oc1ccc2[nH]c3c4c(c5c(c3c2c1)C(=O)NC5=O)CCC4` [Compound 15e] belongs 28 nM.

Staying with this test, now noted: PARP IC50, Table 18.
Consider `O=C(NCCn1cncn1)Oc1ccc2[nH]c3c4c(c5c(c3c2c1)C(=O)NC5=O)CCC4` [Compound 15n], for which the IC50 came out at 38 nM.

The same test, now with this note: Table 2; read-out: PARP IC50.
`O=C(O)CCCC(=O)NCc1ccc2[nH]c3c4c(c5c(c3c2c1)C(=O)NC5=O)CCC4` [Compound 2ac, 3-(N-(4-(Carboxy)butanoyl)aminomethyl)-5,7,8,9,10,11-hexahydrocyclopent[a]-pyrrolo[3,4-c]carbazole-5(6H), 7-dione]: the 50% inhibitory concentration (IC50) stood at 48 nM.
With `O=C(NCCN1CCCCC1)c1ccc2[nH]c3c4c(c5c(c3c2c1)C(=O)NC5=O)CCC4` [Compound 2cm], the IC50 was found to be 148 nM.
On the same count and under the same terms, to `O=C1NC(=O)c2c1c1c(c3[nH]c4ccc(Cl)cc4c23)CCC1` [Compound 2b] belongs 39 nM; to `NC(=O)[C@@H]1CCCN1C(=O)CCC(=O)c1ccc2[nH]c3c4c(c5c(c3c2c1)C(=O)NC5=O)CCC4` [Compound 4o], 13 nM; to `CCCC(=O)NCc1ccc2[nH]c3c4c(c5c(c3c2c1)C(=O)NC5=O)CCC4` [Compound 2t, 3-(Butanoylaminomethyl)-5,7,8,9,10,11-hexahydrocyclopent[a]pyrrolo[3,4-c]carbazole-5(6H), 7-dione], 44 nM.
Still for that read-out and setting: to `NC(N)=Nc1nc(-c2ccc3[nH]c4c5c(c6c(c4c3c2)C(=O)NC6=O)CCC5)cs1` [Compound 3g] belongs 19 nM; to `COC(=O)C(=O)c1ccc2[nH]c3c4c(c5c(c3c2c1)C(=O)NC5=O)CCC4` [Compound 2ba], 12 nM; to `O=C(CCC(=O)N1CCNCC1)c1ccc2[nH]c3c4c(c5c(c3c2c1)C(=O)NC5=O)CCC4` [Compound 4r], 15 nM.
As to `CCNC(=O)NCc1nc(-c2ccc3[nH]c4c5c(c6c(c4c3c2)C(=O)NC6=O)CCC5)cs1` [Compound 3o], the IC50 came out at 20 nM.
As to `CN(C)Cc1ccc2[nH]c3c4c(c5c(c3c2c1)C(=O)NC5=O)CCC4` [Compound 2bj], the IC50 is 29 nM.
Same read-out and setting: to `COCCNC(=O)c1ccc2[nH]c3c4c(c5c(c3c2c1)C(=O)NC5=O)CCC4` [Compound 2co] belongs 18 nM; to `CC(C)(C)OC(=O)NCC(=O)NCc1ccc2[nH]c3c4c(c5c(c3c2c1)C(=O)NC5=O)CCC4` [Compound 2v, 3-(N-(2-(N-Boc-amino)acetyl)aminomethyl)-5,7,8,9,10,11-hexahydrocyclopent[a]pyrrolo[3,4-c]carbazole-5(6H), 7-dione], 33 nM; to `O=C(NCc1cccnc1)c1ccc2[nH]c3c4c(c5c(c3c2c1)C(=O)NC5=O)CCC4` [Compound 2cl], 21 nM.
Consider `CC(C)(C)OC(=O)Cc1nc(-c2ccc3[nH]c4c5c(c6c(c4c3c2)C(=O)NC6=O)CCC5)cs1` [Compound 3q], for which the half-maximal inhibitory concentration (IC50) was 29 nM.
On to `CC(C)(C)OC(=O)[C@@H]1CCCN1CC(=O)c1ccc2[nH]c3c4c(c5c(c3c2c1)C(=O)NC5=O)CCC4` [Compound 4b], for which the IC50 worked out at 12 nM.
Take `O=C(CN1CCCC1C(=O)O)c1ccc2[nH]c3c4c(c5c(c3c2c1)C(=O)NC5=O)CCC4` (stereo not drawn) [Compound 4c]: the half-inhibitory concentration (IC50) was found to be 7 nM.
As to `CC(C)(C)OC(=O)N1CCN(C(=O)CCC(=O)c2ccc3[nH]c4c5c(c6c(c4c3c2)C(=O)NC6=O)CCC5)CC1` [Compound 4q], the IC50 turned out to be 10 nM.

The same test, now with this note: Table 4; read-out: PARP IC50.
As to `O=c1[nH][nH]c(=O)c2c1c1c(c3[nH]ccc32)CCC1` [Compound 8e, 1,6,7,8-Tetrahydrocyclopent[g]indole-4,5-dicarboxylate hydrazide], the IC50 stood at 1820 nM.

Still in this test, the particulars now being: Table 18; read-out: PARP IC50.
Regarding `CCOc1cccc2[nH]c3c4c(c5c(c3c12)C(=O)NC5=O)CCC4` [Compound 14g], the IC50 amounted to 56 nM.
Same read-out and setting: as for `COc1ccc2[nH]c3c4c(c5c(c3c2c1OC)C(=O)NC5=O)CCC4` [Compound 14l], the figure is 21 nM.
